For one data set, the system named is Kunming mice. Kind of data set: Bone marrow micronucleus test. The settings on record: mouse, in vivo. As to the method:
After four days of continuous administration, perform bone marrow micronucleus test on the 5th day.
Positive contro, Cyclophosphamide 60 mg/kg/day; negative control, saline solution 0.1 ml/10 g/day. After four days of continuous administration, perform bone marrow micronucleus test on the 5th day.
The mice were sacrificed by cervical dislocation, and quickly stripped out of the femur and sternum;
blood and muscles were removed, epiphysis was cleaned; then sternum bone marrow was transfer with a hemostat squeeze onto clean slides with drops of calf serum or wash the femoral the marrow with fetal calf serum directly onto clean slides; after mixing, adjust slides well; then put the adjusted and aired slide into a staining jar filled with methanol, and allow to fix for 15 minutes; and then take it out and place in air until dry out; then, use freshly prepared Giemsa application solution (one sample of Giemsa stock solution and nine samples of phosphate buffer pH 6.8), stained for 10 minutes to wash away slide dye with small stream of water, and then observe under a microscope after it is dried.

The test system of a further data set is SD rats. The experiment in a line: Effect on blood pressure of urethane-anesthetized SD rats. The class given is in vivo. The settings on record: 4.0 mg/kg orally. The method, then:
Four SD rats were anesthetized with urethane ([…]); after vital signs were stable, measure blood pressure through carotid artery cannulation. After blood pressure is stabilized, compound II-36 was administered orally (4.0 mg/kg, body weight), and blood pressure changes with time were recorded; study results are shown in Table 4, 5 and 6.

Data set [1] deals with In Vitro Vascular Smooth Muscle of Rabbits. Kind of data set: Relaxant effect on in vitro rabbit vascular smooth muscle contraction induced by adrenaline (AD). Conditions: for EC50: Oryctolagus cuniculus; for relaxant effect against AD contraction (in words): rabbit vascular smooth muscle, AD 10^−5 mol/L. The text has this: Krebs-Henseleit (K—H) physiological solution: NaCl 6.92 (concentration units), KCl 0.35, MgSO4 0.29, KH2PO4 0.16, CaCl2 0.28, NaHCO3 2.1, glucose 2.0 (g/L), pH 7.2.
Preparation of compound II-1 to II-87 solutions: Weigh a certain quality compound samples and dilute to concentrations (10^−10˜10^−3 mol/L) with distilled water, standby.
(§1) Cut the chest open quickly after stunning, strip out the descending aorta, then after removing the surrounding connective tissue and adipose tissue (if performed serotonin receptor antagonist experiments, endothelial cells should be removed using a smooth stainless steel bars), cut the vessels into 3-5 mm vascular ring, then pass the steel hook through the blood vessel ring, with one end is fixed to the vent hook and the other end connected to the tension transducer, then place the specimens into bath tube containing 20 mL of nutrient solution, and record tension change by tension transducer. Maintain tube temperature at 37±0.5° C., and pass bubbles (95% O2+5% CO2) into the solution as a speed of 1-2 bubbles/minute. Place an initial load of 1.5 g on the rings, and change nutrient every 20 minutes, then balance for 2 hours and start test after baseline readings are stabilized.
After tension readings are stabilized, record a certain length of tension curve, and add spasmogens agent AD (10^−5 mol/L) to induce contraction; if a maximum contract is achieved, wash the specimens thoroughly, and change K—H solution every 20 minutes, and then balance for 60 minutes; after baseline readings are stabilized, induce contract with spasmogens agent again. When the maximum contract in the later induction is consistent with the former induction, add compound II-1 to II-34 solutions (1×10^−10 to 1×10^−3 mol/L), II-35 to II-87 solutions (1×10^−8-1×10^−3 mol/L), and record the curves. Draw a dose-response curve using maximum relaxation response as 100%, relaxation percentage as ordinate and negative logarithms of the each concentration as abscissa.

A further data set relates to 5-HT2A receptors. The experiment in a line: Antagonism of 5-HT cumulative contraction of rabbit aorta, pA2.
From the text: as §1
After the tension is stabilized, record a certain length of the curve, and add 5-HT (10^−7-3×10^−4 mol/L) to the tube until a maximum response is achieved, and then record the curve. Then wash the specimen with K—H solution repeatedly, balance for 1.5 h, add compound II-36 (3×10^−6 mol/L), and 20 minutes later, add 5-HT following a same procedure. Mark 5-HT contraction as ordinate using maximum response as 100% base. […]

[2] abbreviates: time after administration 90, n = 4.
Where [3] appears, read: relaxation of rabbit aortic rings contracted by AD (10^−5 mol/L).

Data on three molecules can be found in patent US9802929B2, “Benzo five-membered nitrogen heterocyclic piperidine or piperazine derivatives and preparation methods and pharmaceutical compositions thereof” (Shenyang Haiwang Biotechnology Co., Ltd., priority 2012, dated 2017).

A word on the EC50: it is the concentration needed to bring the measured effect to its halfway point. Higher therefore signals a less potent agent. For the molecule `FC(F)(F)c1cccc(N2CCN(CCCCn3cnc4ccccc43)CC2)c1` [Compound II-36, 1-(4-(4-(3-trifluoromethylphenyl)piperazin-1-yl)butyl)-1H-benzimidazole], the “polychromatic erythrocytes with micronucleus” value in the data set on Kunming mice (both, Kunming, 4 days) was 2.0±0.333 ‰. Also, the “bone marrow micronucleus test result” value with Kunming mice is given as “negative”. Besides, the “hypotensive effect (in words)” value in the data set with SD rats is reported as “significant hypotensive effect”. In addition, in the data set with SD rats, the “time until blood pressure recovered to the level before administration” value was 3.5 h. Also, the “mean arterial pressure (MAP)” value in the data set with SD rats (time after administration 0, n = 4) is recorded as 91.50 mmHg; in the data set with SD rats (time after administration 15, n = 4), 73.40 mmHg; in the data set on SD rats (time after administration 30, n = 4), 74.52 mmHg; with SD rats (time after administration 60, n = 4), 72.77 mmHg; in the data set with SD rats (setting [2]) it was 68.81 mmHg; in the data set with SD rats (time after administration 120, n = 4) it was 83.12 mmHg. In addition, the “mean arterial pressure (MAP)” value worked out at 84.47 mmHg with SD rats (time after administration 150, n = 4); 84.83 mmHg with SD rats (time after administration 180, n = 4); 88.54 mmHg in the data set with SD rats (time after administration 210, n = 4). Moreover, in the data set with SD rats (setting [2]), the “Systolic blood pressure (SBP)” value is recorded as 98.71 mmHg. In data set [1] (setting [3]), this molecule gave an EC50 of 1860 nM. Moreover, in data set [1], the “relaxant effect against AD contraction (in words)” value (from here on “relaxant effect”) was “most significant relaxation effects”.
As for `FC(F)(F)c1cccc(N2CCN(CCCCn3nnc4ccccc43)CC2)c1` [Compound II-65, 1-(4-(4-(3-trifluoromethylphenyl)piperazin-1-yl)butyl)-1H-benzotriazole], the “PA2 value against 5-HT contraction” value in the data set with 5-HT2A receptors was 6.726±0.089. Further, the “relaxant effect” value in data set [1] is given as “most significant relaxation effects”. In data set [1] (setting [3]), the “−logEC50” value came to 6.19 ± 0.03.
Consider `c1ccc2c(c1)nnn2CCCCN1CCN(c2nsc3ccccc23)CC1` [Compound II-68, 3-(4-(4-(1H-benzotriazol-1-yl)butyl)piperazin-1-yl)benzisothiazole], for which the “PA2 value against 5-HT contraction” value with 5-HT2A receptors was 8.86±0.14. Further, the EC50 in data set [1] (setting [3]) was 8.51 nM. Also, the “relaxant effect” value in data set [1] is listed as “most significant relaxation effects”.
